Reference: PMC9516332 (Frontiers in Oncology, 2022)
Read-outs that look alike come from different tables or passages of the source.

Key:
AP-1060 (ETV6-NTRK3) = experiment: Cell viability assay; conditions: read-out: IC50 in cell proliferation assay
134 cancer cell lines = experiment: Cell viability assay (ATPlite, 72 hours), IC50 on cancer cell line panel

Cc1nc(NC(=O)N2CCC[C@H]2C(N)=O)sc1-c1ccnc(C(C)(C)C(F)(F)F)c1 [alpelisib]
IC50 (AP-1060 (ETV6-NTRK3)): 1.74 µM | IC50 (134 cancer cell lines; HEC-6, read-out: IC50 in cell proliferation assay, HEC-6 cell line (EGFR p.A289V)): 7.66 µM | IC50 (134 cancer cell lines; Homo sapiens, 769-P, read-out: IC50 in cell proliferation assay, cell line 769-P): 14.3 µM | IC50 (134 cancer cell lines; Homo sapiens, 786-0, read-out: IC50 in cell proliferation assay, cell line 786-O): > 31.6 µM | IC50 (134 cancer cell lines; Homo sapiens, A 172, read-out: IC50 in cell proliferation assay, cell line A-172): 19.6 µM | IC50 (134 cancer cell lines; Homo sapiens, A204, read-out: IC50 in cell proliferation assay, cell line A-204): 0.247 µM | IC50 (134 cancer cell lines; Homo sapiens, A498, read-out: IC50 in cell proliferation assay, cell line A-498): 14.4 µM | IC50 (134 cancer cell lines; Homo sapiens, A549, read-out: IC50 in cell proliferation assay, cell line A-549): 9.89 µM | IC50 (134 cancer cell lines; Homo sapiens, A704, read-out: IC50 in cell proliferation assay, cell line A-704): 27 µM | IC50 (134 cancer cell lines; Homo sapiens, A-375, read-out: IC50 in cell proliferation assay, cell line A-375 (BRAF p.V600E)): 14.9 µM | IC50 (134 cancer cell lines; Homo sapiens, A-427, read-out: IC50 in cell proliferation assay, cell line A-427): 0.074 µM | IC50 (134 cancer cell lines; Homo sapiens, ACHN, read-out: IC50 in cell proliferation assay, cell line ACHN): 9.68 µM | IC50 (134 cancer cell lines; Homo sapiens, AN3-CA, read-out: IC50 in cell proliferation assay, cell line AN3-CA (FGFR2 p.N549K)): 0.697 µM | IC50 (134 cancer cell lines; Homo sapiens, ASPC1, read-out: IC50 in cell proliferation assay, cell line AsPC-1): 8.97 µM | IC50 (134 cancer cell lines; Homo sapiens, AU565, read-out: IC50 in cell proliferation assay, cell line AU565 (ERBB2 amplification)): 1.56 µM | IC50 (134 cancer cell lines; Homo sapiens, BT-20, read-out: IC50 in cell proliferation assay, cell line BT-20): 3.55 µM | IC50 (134 cancer cell lines; Homo sapiens, BT-474, read-out: IC50 in cell proliferation assay, cell line BT-474 (ERBB2 amplification)): 3.2 µM | IC50 (134 cancer cell lines; Homo sapiens, BT-549, read-out: IC50 in cell proliferation assay, cell line BT-549): 16.6 µM | IC50 (134 cancer cell lines; Homo sapiens, BXPC-3, read-out: IC50 in cell proliferation assay, cell line BxPC-3): 5.88 µM | IC50 (134 cancer cell lines; Homo sapiens, C-33-A, read-out: IC50 in cell proliferation assay, cell line C-33 A): 25.1 µM | IC50 (134 cancer cell lines; Homo sapiens, CAL-27, read-out: IC50 in cell proliferation assay, cell line CAL-27): 2.31 µM | IC50 (134 cancer cell lines; Homo sapiens, CCF-STTG1, read-out: IC50 in cell proliferation assay, cell line CCF-STTG1): > 31.6 µM | IC50 (134 cancer cell lines; Homo sapiens, CCRF-CEM, read-out: IC50 in cell proliferation assay, cell line CCRF-CEM): 4.28 µM | IC50 (134 cancer cell lines; Homo sapiens, COLO 205, read-out: IC50 in cell proliferation assay, cell line COLO 205 (BRAF p.V600E)): 14.1 µM | IC50 (134 cancer cell lines; Homo sapiens, COLO-829, read-out: IC50 in cell proliferation assay, cell line COLO 829 (BRAF p.V600E)): > 31.6 µM | IC50 (134 cancer cell lines; Homo sapiens, DLD-1, read-out: IC50 in cell proliferation assay, cell line DLD-1): 0.676 µM | IC50 (134 cancer cell lines; Homo sapiens, DU-4475, read-out: IC50 in cell proliferation assay, cell line DU4475 (BRAF p.V600E)): 0.628 µM | IC50 (134 cancer cell lines; Homo sapiens, Daoy, read-out: IC50 in cell proliferation assay, cell line Daoy): 9.36 µM | IC50 (134 cancer cell lines; Homo sapiens, DoTc2-4510, read-out: IC50 in cell proliferation assay, cell line DoTc2 4510): 1.3 µM | IC50 (134 cancer cell lines; Homo sapiens, EOL1, read-out: IC50 in cell proliferation assay, cell line EoL-1 (FIP1L1-PDGFRA)): 0.335 µM | IC50 (134 cancer cell lines; Homo sapiens, FaDu, read-out: IC50 in cell proliferation assay, cell line FaDu): 1.71 µM | IC50 (134 cancer cell lines; Homo sapiens, G-361, read-out: IC50 in cell proliferation assay, cell line G-361 (BRAF p.V600E)): 16.6 µM | IC50 (134 cancer cell lines; Homo sapiens, HCC827, read-out: IC50 in cell proliferation assay, cell line HCC827 (EGFR exon19del)): 5.4 µM | IC50 (134 cancer cell lines; Homo sapiens, HCC4006, read-out: IC50 in cell proliferation assay, cell line HCC4006 (EGFR exon19del)): 4.56 µM | IC50 (134 cancer cell lines; Homo sapiens, HCT-15, read-out: IC50 in cell proliferation assay, cell line HCT 15): 0.838 µM | IC50 (134 cancer cell lines; Homo sapiens, HCT-116, read-out: IC50 in cell proliferation assay, cell line HCT 116): 6.31 µM | IC50 (134 cancer cell lines; Homo sapiens, HEC-1, read-out: IC50 in cell proliferation assay, HEC-1 cell line): 5.84 µM | IC50 (134 cancer cell lines; Homo sapiens, HEC-1B, read-out: IC50 in cell proliferation assay, HEC-1-B cell line (EGFR p.A864V)): 0.943 µM | IC50 (134 cancer cell lines; Homo sapiens, HL-60, read-out: IC50 in cell proliferation assay, HL-60 cell line): 1.69 µM | IC50 (134 cancer cell lines; Homo sapiens, HT, read-out: IC50 in cell proliferation assay, HT cell line): 14.3 µM | IC50 (134 cancer cell lines; Homo sapiens, HT-1080, read-out: IC50 in cell proliferation assay, HT-1080 cell line): 0.314 µM | IC50 (134 cancer cell lines; Homo sapiens, Hs746T, read-out: IC50 in cell proliferation assay, Hs 746.T cell line (MET exon14skip + amplification)): 5.75 µM | IC50 (134 cancer cell lines; Homo sapiens, Hs-578T, read-out: IC50 in cell proliferation assay, Hs 578T cell line): 8.51 µM | IC50 (134 cancer cell lines; Homo sapiens, HuTu80, read-out: IC50 in cell proliferation assay, HuTu 80 cell line): 1.09 µM | IC50 (134 cancer cell lines; Homo sapiens, J82, read-out: IC50 in cell proliferation assay, J82 cell line): > 31.6 µM | IC50 (134 cancer cell lines; Homo sapiens, Jurkat E6.1, read-out: IC50 in cell proliferation assay, Jurkat E6.1 cell line): 12.9 µM | IC50 (134 cancer cell lines; Homo sapiens, K562, read-out: IC50 in cell proliferation assay, K-562 cell line): > 31.6 µM | IC50 (134 cancer cell lines; Homo sapiens, KATO III, read-out: IC50 in cell proliferation assay, KATO III cell line (FGFR2 amplification)): 2.79 µM | IC50 (134 cancer cell lines; Homo sapiens, KG-1, read-out: IC50 in cell proliferation assay, KG-1 cell line (FGFR1OP2-FGFR1)): 27.7 µM | IC50 (134 cancer cell lines; Homo sapiens, KLE, read-out: IC50 in cell proliferation assay, KLE cell line): 5.79 µM | IC50 (134 cancer cell lines; Homo sapiens, KMS-11, read-out: IC50 in cell proliferation assay, KMS-11 cell line (FGFR3 p.Y373C)): 1.53 µM | IC50 (134 cancer cell lines; Homo sapiens, KU812, read-out: IC50 in cell proliferation assay, Ku812 cell line): 0.075 µM | IC50 (134 cancer cell lines; Homo sapiens, Kasumi 1, read-out: IC50 in cell proliferation assay, Kasumi-1 cell line (KIT p.N822K)): 1.9 µM | IC50 (134 cancer cell lines; Homo sapiens, LC-2-ad, read-out: IC50 in cell proliferation assay, LC-2/ad cell line (CCDC6-RET)): 4.5 µM | IC50 (134 cancer cell lines; Homo sapiens, LNCaP-Clone-FGC, read-out: IC50 in cell proliferation assay, LNCaP clone FGC cell line): > 31.6 µM | IC50 (134 cancer cell lines; Homo sapiens, LS174T, read-out: IC50 in cell proliferation assay, LS174T cell line): 1.9 µM | IC50 (134 cancer cell lines; Homo sapiens, LS-411N, read-out: IC50 in cell proliferation assay, LS411N cell line (BRAF p.V600E)): 17.4 µM | IC50 (134 cancer cell lines; Homo sapiens, LoVo, read-out: IC50 in cell proliferation assay, LoVo cell line): 20.5 µM | IC50 (134 cancer cell lines; Homo sapiens, MCF7, read-out: IC50 in cell proliferation assay, MCF-7 cell line): 2.79 µM | IC50 (134 cancer cell lines; Homo sapiens, MDA-MB-231, read-out: IC50 in cell proliferation assay, MDA-MB-231 cell line): > 31.6 µM | IC50 (134 cancer cell lines; Homo sapiens, MDA-MB-453, read-out: IC50 in cell proliferation assay, MDA-MB-453 cell line): 6.03 µM | IC50 (134 cancer cell lines; Homo sapiens, MDA-MB-468, read-out: IC50 in cell proliferation assay, MDA-MB-468 cell line): 9.8 µM | IC50 (134 cancer cell lines; Homo sapiens, MG-63, read-out: IC50 in cell proliferation assay, MG-63 cell line): 3.87 µM | IC50 (134 cancer cell lines; Homo sapiens, MIA PaCa-2, read-out: IC50 in cell proliferation assay, MIA PaCa-2 cell line): 10.7 µM | IC50 (134 cancer cell lines; Homo sapiens, MKN-45, read-out: IC50 in cell proliferation assay, MKN45 cell line (MET amplification)): 1.23 µM | IC50 (134 cancer cell lines; Homo sapiens, MOLM-13, read-out: IC50 in cell proliferation assay, MOLM-13 cell line (FLT3 ITD)): 3.48 µM | IC50 (134 cancer cell lines; Homo sapiens, MOLT-4, read-out: IC50 in cell proliferation assay, MOLT-4 cell line): 0.701 µM | IC50 (134 cancer cell lines; Homo sapiens, MV4-11, read-out: IC50 in cell proliferation assay, MV4-11 cell line (FLT3 ITD)): 10.5 µM | IC50 (134 cancer cell lines; Homo sapiens, MeWo, read-out: IC50 in cell proliferation assay, MeWo cell line): > 31.6 µM | IC50 (134 cancer cell lines; Homo sapiens, NCCIT, read-out: IC50 in cell proliferation assay, NCC-IT cell line): 8.35 µM | IC50 (134 cancer cell lines; Homo sapiens, NCI-H82, read-out: IC50 in cell proliferation assay, cell line NCI-H82): 11.1 µM
